Measured values as given in patent publication US20250268877A1 (BIOGEN MA INC., priority 2020, published 2025).
Converted amounts (≈) assume the structure as drawn.

Columns and labels:
IRAK4 = IRAK4 (Homo sapiens (Human), UniProt Q9NWZ3); test: IRAK4 2-hour 1 mM ATP Biochemical Assay (MesoScale Detection format); settings: 100 pM IRAK4, read-out: IRAK4 IC50
[1] = Kinetic solubility assay (CLND), potassium phosphate buffer pH 6.8; type: physicochemical; settings: pH 6.8, 2% DMSO, 24 hours at ambient temperature; for solubility at 24 h: potassium phosphate buffer, pH 6.8, aqueous buffer, kinetic from dmso stock
MDR1 = MDR1 (Homo sapiens (Human), UniProt P08183); test: MDR1-MDCK assay (apparent permeability, efflux ratio); type: in vitro ADME; settings: human, MDCK-MDR1, 1 μM, read-out: MDR1-MDCK_Efflux Ratio
Sequence of MDR1 (P08183 whole entry): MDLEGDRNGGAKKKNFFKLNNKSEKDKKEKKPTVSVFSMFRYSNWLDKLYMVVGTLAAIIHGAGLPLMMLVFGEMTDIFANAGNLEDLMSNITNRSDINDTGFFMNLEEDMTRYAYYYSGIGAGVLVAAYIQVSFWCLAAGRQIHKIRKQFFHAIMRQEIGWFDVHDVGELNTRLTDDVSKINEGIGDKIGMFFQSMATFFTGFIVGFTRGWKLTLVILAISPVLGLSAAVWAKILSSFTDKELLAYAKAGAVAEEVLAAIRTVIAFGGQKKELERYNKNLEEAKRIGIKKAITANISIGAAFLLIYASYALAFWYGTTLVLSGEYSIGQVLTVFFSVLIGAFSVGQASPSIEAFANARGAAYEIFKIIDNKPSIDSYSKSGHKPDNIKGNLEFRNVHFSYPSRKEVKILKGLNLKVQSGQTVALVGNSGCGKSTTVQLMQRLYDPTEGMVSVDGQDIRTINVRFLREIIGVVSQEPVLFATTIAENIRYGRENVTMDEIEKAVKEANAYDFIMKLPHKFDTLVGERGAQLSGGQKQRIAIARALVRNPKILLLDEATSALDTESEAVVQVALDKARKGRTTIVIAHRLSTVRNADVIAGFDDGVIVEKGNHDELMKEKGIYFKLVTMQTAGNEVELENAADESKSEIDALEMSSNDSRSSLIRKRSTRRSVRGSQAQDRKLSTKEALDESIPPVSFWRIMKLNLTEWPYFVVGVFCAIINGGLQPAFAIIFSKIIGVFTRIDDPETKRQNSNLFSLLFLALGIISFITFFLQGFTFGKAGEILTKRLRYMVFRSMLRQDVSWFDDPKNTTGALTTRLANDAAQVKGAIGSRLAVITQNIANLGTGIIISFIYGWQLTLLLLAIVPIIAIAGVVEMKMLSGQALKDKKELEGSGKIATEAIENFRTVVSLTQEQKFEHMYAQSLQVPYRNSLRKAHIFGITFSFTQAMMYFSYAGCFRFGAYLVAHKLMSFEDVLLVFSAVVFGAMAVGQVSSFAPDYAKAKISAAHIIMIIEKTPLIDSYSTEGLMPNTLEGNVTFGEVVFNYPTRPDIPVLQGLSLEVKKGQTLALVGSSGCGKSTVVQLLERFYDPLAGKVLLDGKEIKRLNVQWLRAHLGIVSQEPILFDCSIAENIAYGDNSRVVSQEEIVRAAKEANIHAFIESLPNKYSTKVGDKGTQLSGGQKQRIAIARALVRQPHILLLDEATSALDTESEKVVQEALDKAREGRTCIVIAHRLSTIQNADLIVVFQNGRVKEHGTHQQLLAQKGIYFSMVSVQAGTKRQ

Sequence of IRAK4 (Q9NWZ3 whole entry): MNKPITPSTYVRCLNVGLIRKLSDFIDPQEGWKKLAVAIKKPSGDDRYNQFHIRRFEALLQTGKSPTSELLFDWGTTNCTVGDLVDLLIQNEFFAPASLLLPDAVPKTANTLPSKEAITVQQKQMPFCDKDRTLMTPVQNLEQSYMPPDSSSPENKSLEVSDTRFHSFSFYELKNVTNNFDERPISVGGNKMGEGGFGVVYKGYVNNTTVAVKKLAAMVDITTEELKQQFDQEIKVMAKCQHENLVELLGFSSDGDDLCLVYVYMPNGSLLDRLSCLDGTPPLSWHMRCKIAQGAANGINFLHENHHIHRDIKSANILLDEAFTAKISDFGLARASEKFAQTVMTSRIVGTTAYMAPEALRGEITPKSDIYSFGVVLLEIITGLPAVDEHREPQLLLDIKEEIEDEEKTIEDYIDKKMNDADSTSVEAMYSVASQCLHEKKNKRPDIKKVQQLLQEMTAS

| IC50 (IRAK4) [nM] | solubility at 24 h [1] [µg/mL] | efflux ratio at 120 min, 1 μM (MDR1) | Solubility pH 6.8 [1] [ug/mL] | Structure (SMILES) |
| --- | --- | --- | --- | --- |
| 0.5 | 51.5 (≈ 107 µM) | 1.43 |  | CC(C)Oc1cc2nn([C@]34CC[C@](C)(C3)OC4)cc2cc1C(=O)Nc1cccn([C@@H]2C[C@H]2F)c1=O (single isomer, unassigned) [Example 61] |
| 0.6 | 56.1 (≈ 117 µM) | 1.6 |  | CC(C)Oc1cc2nn([C@]34CC[C@](C)(C3)OC4)cc2cc1C(=O)Nc1cccn([C@H]2C[C@@H]2F)c1=O (single isomer, unassigned) [Example 62] |
| 0.5 | 58.8 (≈ 118 µM) | 5.06 |  | COCC12CC(n3cc4cc(C(=O)Nc5cccn([C@@H]6C[C@H]6F)c5=O)c(OC(C)C)nc4n3)(CO1)C2 (single isomer, unassigned) [Example 63] |
| 0.8 | 13 (≈ 25.5 µM) | 3.22 |  | COCC12CC(n3cc4cc(C(=O)Nc5cccn([C@@H]6C[C@H]6F)c5=O)c(OC5CCC5)nc4n3)(CO1)C2 (single isomer, unassigned) [Example 65] |
| 0.8 | 12.3 (≈ 24.1 µM) | 3.38 |  | COCC12CC(n3cc4cc(C(=O)Nc5cccn([C@H]6C[C@@H]6F)c5=O)c(OC5CCC5)nc4n3)(CO1)C2 (single isomer, unassigned) [Example 66] |
| 0.2 | 62.4 (≈ 134 µM) | 7.93 |  | O=C(Nc1cccn([C@H]2C[C@H]2F)c1=O)c1cc2cn([C@@]34CC[C@@H](C3)OC4)nc2nc1OC1CC1 (single isomer, unassigned) [Example 87] |
| 0.5 |  | 2.5 | 47.6 | C[C@@H]1C[C@@H]1n1cccc(NC(=O)c2cc3cn([C@@]45CC[C@@H](C4)OC5)nc3nc2OC2CC2)c1=O (single isomer, unassigned) [Example 93] |
|  | 16.7 (≈ 35.7 µM) | 4.48 |  | CC(C)Oc1nc2nn(C34COC(C)(C3)C4)cc2cc1C(=O)Nc1cccn([C@@H]2C[C@@H]2F)c1=O [Example 83, N-(1-((1R,2S)-2-fluorocyclopropyl)-2-oxo-1,2-dihydropyridin-3-yl)-6-isopropoxy-2-(1-methyl-2-oxabicyclo[2.1.1]hexan-4-yl)-2H-pyrazolo[3,4-b]pyridine-5-carboxamide] |
|  | 15.8 (≈ 33.8 µM) | 3.06 |  | CC(C)Oc1nc2nn(C34COC(C)(C3)C4)cc2cc1C(=O)Nc1cccn([C@H]2C[C@H]2F)c1=O [Example 84, N-(1-((1S,2R)-2-fluorocyclopropyl)-2-oxo-1,2-dihydropyridin-3-yl)-6-isopropoxy-2-(1-methyl-2-oxabicyclo[2.1.1]hexan-4-yl)-2H-pyrazolo[3,4-b]pyridine-5-carboxamide] |

Further lines, the compound ahead of its results:

| Structure (SMILES) | IC50 (IRAK4) [nM] | solubility at 24 h [1] [µg/mL] | efflux ratio at 120 min, 1 μM (MDR1) | Solubility pH 6.8 [1] [ug/mL] |
| --- | --- | --- | --- | --- |
| CC12CC(n3cc4cc(C(=O)Nc5cccn([C@@H]6C[C@@H]6F)c5=O)c(OC5CCC5)nc4n3)(CO1)C2 (racemic) [Example 25, 6-cyclobutoxy-N-(1-(cis-2-fluorocyclopropyl)-2-oxo-1,2-dihydropyridin-3-yl)-2-(1-methyl-2-oxabicyclo[2.1.1]hexan-4-yl)-2H-pyrazolo[3,4-b]pyridine-5-carboxamide] | 0.3 | 29.2 (≈ 60.9 µM) | 2.71 |  |
| CC(C)Oc1nc2nn(C34COC(C)(C3)C4)cc2cc1C(=O)Nc1cccn([C@@H]2C[C@@H]2F)c1=O (single isomer, unassigned) [Example 33] |  | 6.6 (≈ 14.1 µM) | 4.15 |  |
| CC(C)Oc1cc2nn(C34COC(C)(C3)C4)cc2cc1C(=O)Nc1cccn([C@@H]2C[C@@H]2F)c1=O (single isomer, unassigned) [Example 36] |  | 69.5 (≈ 149 µM) | 2.96 |  |
| CC(C)Oc1cc2nn(C34COC(C)(C3)C4)cc2cc1C(=O)Nc1cccn([C@H]2C[C@H]2F)c1=O (single isomer, unassigned) [Example 37] |  | 56 (≈ 120 µM) | 2.71 |  |
| CC(C)Oc1nc2nn(C34COC(C)(C3)C4)cc2cc1C(=O)Nc1cccn([C@H]2C[C@@H]2F)c1=O (single isomer, unassigned) [Example 43] |  | 1.8 (≈ 3.85 µM) | 1.82 |  |
| CC(C)Oc1nc2nn(C34COC(C)(C3)C4)cc2cc1C(=O)Nc1cccn([C@@H]2C[C@H]2F)c1=O (single isomer, unassigned) [Example 44] |  | 1.9 (≈ 4.06 µM) | 1.84 |  |
| CC(C)Oc1cc2nn(C34COC(C)(C3)C4)cc2cc1C(=O)Nc1cccn([C@@H]2C[C@H]2F)c1=O (single isomer, unassigned) [Example 54] |  | 66.5 (≈ 143 µM) | 1.77 |  |
| COCC12CC(n3cc4cc(C(=O)Nc5cccn([C@@H]6C[C@H]6F)c5=O)c(OC(C)C)cc4n3)(CO1)C2 (single isomer, unassigned) [Example 55] | 0.8 | 60.5 (≈ 122 µM) | 3.71 |  |
| COCC12CC(n3cc4cc(C(=O)Nc5cccn([C@H]6C[C@@H]6F)c5=O)c(OC(C)C)cc4n3)(CO1)C2 (single isomer, unassigned) [Example 56] | 0.8 | 63.9 (≈ 129 µM) | 3.31 |  |
| COCC12CC(n3cc4cc(C(=O)Nc5cccn([C@H]6C[C@@H]6F)c5=O)c(OC5CCC5)cc4n3)(CO1)C2 (single isomer, unassigned) [Example 58] | 1.5 | 52.3 (≈ 103 µM) | 4.05 |  |
| CC(C)Oc1cc2nn([C@@]34CC[C@@](C)(C3)OC4)cc2cc1C(=O)Nc1cccn([C@H]2C[C@@H]2F)c1=O (single isomer, unassigned) [Example 60] | 0.5 | 52.9 (≈ 110 µM) | 1.75 |  |
| CC12CC(n3cc4cc(C(=O)Nc5cccn(C6CC6)c5=O)c(OC5CCC5)cc4n3)(CO1)C2 [Example 1, 6-Cyclobutoxy-N-(1-cyclopropyl-2-oxo-1,2-dihydropyridin-3-yl)-2-(1-methyl-2-oxabicyclo[2.1.1]hexan-4-yl)-2H-indazole-5-carboxamide] | 0.9 | 71 (≈ 154 µM) |  |  |
| CC(C)Oc1cc2nn([C@]34CC[C@](C)(C3)OC4)cc2cc1C(=O)Nc1cccn(C2CC2)c1=O [Example 3, N-(1-cyclopropyl-2-oxo-1,2-dihydropyridin-3-yl)-6-isopropoxy-2-((1R,4R)-1-methyl-2-oxabicyclo[2.2.1]heptan-4-yl)-2H-indazole-5-carboxamide] | 0.5 | 7.9 (≈ 17.1 µM) | 1.59 |  |
| C[C@@]12CC[C@@](n3cc4cc(C(=O)Nc5cccn(C6CC6)c5=O)c(OC5CCC5)nc4n3)(CO1)C2 [Example 6, 6-cyclobutoxy-N-(1-cyclopropyl-2-oxo-1,2-dihydropyridin-3-yl)-2-((1S,4S)-1-methyl-2-oxabicyclo[2.2.1]heptan-4-yl)-2H-pyrazolo[3,4-b]pyridine-5-carboxamide] | 0.4 | 5.57 (≈ 11.7 µM) | 1.59 |  |
| C[C@]12CC[C@](n3cc4cc(C(=O)Nc5cccn(C6CC6)c5=O)c(OC5CCC5)nc4n3)(CO1)C2 [Example 7, 6-cyclobutoxy-N-(1-cyclopropyl-2-oxo-1,2-dihydropyridin-3-yl)-2-((1R,4R)-1-methyl-2-oxabicyclo[2.2.1]heptan-4-yl)-2H-pyrazolo[3,4-b]pyridine-5-carboxamide] | 0.7 | 10.3 (≈ 21.6 µM) | 1.43 |  |
| CC(C)Oc1nc2nn(C3CCOCC3)cc2cc1C(=O)Nc1cccn(C2CC2)c1=O [Example 13] | 0.7 | 19.8 (≈ 45.3 µM) | 3.41 |  |
| CC[C@@H](C)Oc1nc2nn(C34COC(C)(C3)C4)cc2cc1C(=O)Nc1cccn(C2CC2)c1=O [Example 14, (R)-6-(sec-butoxy)-N-(1-cyclopropyl-2-oxo-1,2-dihydropyridin-3-yl)-2-(1-methyl-2-oxabicyclo[2.1.1]hexan-4-yl)-2H-pyrazolo[3,4-b]pyridine-5-carboxamide] | 1.4 | 43 (≈ 92.8 µM) | 2.27 |  |
| CC(C)Oc1nc2nn([C@H]3CCCOC3)cc2cc1C(=O)Nc1cccn(C2CC2)c1=O [Example 16, (S)—N-(1-cyclopropyl-2-oxo-1,2-dihydropyridin-3-yl)-6-isopropoxy-2-(tetrahydro-2H-pyran-3-yl)-2H-pyrazolo[3,4-b]pyridine-5-carboxamide] | 0.2 | 44.6 (≈ 102 µM) | 2.09 |  |
| CC12CC(n3cc4cc(C(=O)Nc5cccn(C6CC6)c5=O)c(OC5CCC5)nc4n3)(CO1)C2 [Example 24, 6-cyclobutoxy-N-(1-cyclopropyl-2-oxo-1,2-dihydropyridin-3-yl)-2-(1-methyl-2-oxabicyclo[2.1.1]hexan-4-yl)-2H-pyrazolo[3,4-b]pyridine-5-carboxamide] | 0.4 | 5.53 (≈ 12 µM) | 2.53 |  |
| CC12CC(n3cc4cc(C(=O)Nc5cccn([C@@H]6C[C@@H]6F)c5=O)c(OC5CCC5)nc4n3)(CO1)C2 [Example 26, 6-cyclobutoxy-N-(1-((1R,2S)-2-fluorocyclopropyl)-2-oxo-1,2-dihydropyridin-3-yl)-2-(1-methyl-2-oxabicyclo[2.1.1]hexan-4-yl)-2H-pyrazolo[3,4-b]pyridine-5-carboxamide] | 7.3 | 1.6 (≈ 3.34 µM) | 4.05 |  |
| CC(C)Oc1nc2nn(C34COC(C3)C4)cc2cc1C(=O)Nc1cccn(C2CC2)c1=O [Example 28, 2-(2-oxabicyclo[2.1.1]hexan-4-yl)-N-(1-cyclopropyl-2-oxo-1,2-dihydropyridin-3-yl)-6-isopropoxy-2H-pyrazolo[3,4-b]pyridine-5-carboxamide] | 0.4 | 2.7 (≈ 6.2 µM) | 4.72 |  |
